In publication PMC9067936, “SHIP164 is a chorein motif lipid transfer protein that controls endosome–Golgi membrane traffic” (The Journal of Cell Biology, 2022):

Molecular target: T1, 3XFLAG-SHIP164Δ901–1099 (Homo sapiens, UniProt A0JNW5, DEL901-1099)
T1 construct: gene BLTP3B; residues 901-1099 (predicted unstructured) deleted; N-terminal 3xFLAG tag kept; expressed in Expi293F; tail-to-tail dimer in vitro
Experiment: native gel co-migration, NBD fluorescence calibrated with E-Syt2 standard curve
Assay type: binding
Conditions: 0.2 mM NBD-PE, 2 h on ice; labelled compound; stoichiometry estimate

T1 sequence (A0JNW5 with tags, fused parts or gaps DEL901-1099): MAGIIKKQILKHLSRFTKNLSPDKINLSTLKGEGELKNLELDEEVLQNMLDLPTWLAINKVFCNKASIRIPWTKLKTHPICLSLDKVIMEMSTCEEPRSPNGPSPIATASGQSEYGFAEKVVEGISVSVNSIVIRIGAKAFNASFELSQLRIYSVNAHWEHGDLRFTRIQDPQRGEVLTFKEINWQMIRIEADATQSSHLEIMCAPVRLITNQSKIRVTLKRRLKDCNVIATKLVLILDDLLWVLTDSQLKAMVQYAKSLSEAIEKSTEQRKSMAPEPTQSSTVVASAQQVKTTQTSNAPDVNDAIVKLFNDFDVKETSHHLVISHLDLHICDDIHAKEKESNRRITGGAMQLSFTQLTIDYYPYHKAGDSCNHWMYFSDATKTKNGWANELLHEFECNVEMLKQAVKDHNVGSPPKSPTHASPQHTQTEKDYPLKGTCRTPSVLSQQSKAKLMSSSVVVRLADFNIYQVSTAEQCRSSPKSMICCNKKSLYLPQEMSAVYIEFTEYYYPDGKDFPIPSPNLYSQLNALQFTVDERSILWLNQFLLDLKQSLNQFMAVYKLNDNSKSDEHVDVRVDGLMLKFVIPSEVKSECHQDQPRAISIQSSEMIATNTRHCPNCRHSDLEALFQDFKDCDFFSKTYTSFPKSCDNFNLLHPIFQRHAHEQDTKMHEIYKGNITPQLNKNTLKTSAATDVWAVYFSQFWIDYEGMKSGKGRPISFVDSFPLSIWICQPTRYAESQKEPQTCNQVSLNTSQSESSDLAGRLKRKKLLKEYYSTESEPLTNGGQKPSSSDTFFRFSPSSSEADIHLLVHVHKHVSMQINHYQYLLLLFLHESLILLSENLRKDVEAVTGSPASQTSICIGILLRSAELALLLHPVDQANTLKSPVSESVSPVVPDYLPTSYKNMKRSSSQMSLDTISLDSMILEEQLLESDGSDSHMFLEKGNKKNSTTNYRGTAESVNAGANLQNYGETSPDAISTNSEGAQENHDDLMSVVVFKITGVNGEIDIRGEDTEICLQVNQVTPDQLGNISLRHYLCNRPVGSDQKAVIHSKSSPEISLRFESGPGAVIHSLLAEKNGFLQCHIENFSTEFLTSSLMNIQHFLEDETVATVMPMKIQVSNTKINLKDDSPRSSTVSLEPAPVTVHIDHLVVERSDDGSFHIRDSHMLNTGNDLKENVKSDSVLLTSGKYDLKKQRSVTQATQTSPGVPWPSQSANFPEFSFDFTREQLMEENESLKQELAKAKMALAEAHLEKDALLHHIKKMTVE

Structure (SMILES): CCCCCCCC/C=C\CCCCCCCC(=O)OC[C@H](COP(=O)(O)OCCNc1ccc([N+](=O)[O-])c2nonc12)OC(=O)CCCCCCC/C=C\CCCCCCCC [NBD-PE]
- lipids per SHIP164 molecule: ~ 8 lipids per protein molecule
